The term IC50 denotes the point on the concentration scale where inhibition reaches its midpoint.

Structures can show the parent of a compound that is named as a salt.

Here are results for 17 compounds from patent US9108983B2, “Pyrrole compounds, a process for their preparation and pharmaceutical compositions containing them” (LES LABORATOIRES SERVIER, priority 2013, dated 2015).

The target in one assay is Bcl-2 protein (histag-Bcl-2, UniProtKB P10415) (Homo sapiens (Human), UniProt P10415). Nature of the assay: Inhibition of Bcl-2 by the fluorescence polarisation technique. The class given is binding. Particulars: incubation for 2 hours, read-out: IC50 (nM) Bcl-2 FP. A digest of the protocol:
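Fluorescence polarisation competition: His-tagged Bcl-2 (2.50×10^−8 M final) with fluorescein-labelled peptide (1.00×10^−8 M final) in 10 mM Hepes, 150 mM NaCl, 0.05% Tween20, pH 7.4. Increasing compound concentrations were added. Polarisation was read after 2 h incubation.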
Background: Fluorescence polarisation rises when a labelled molecule tumbles more slowly, as on binding a larger partner.

In assay [1] the test system is RS4;11 leukaemia tumour line. Nature of the assay: In vitro cytotoxicity (Microculture Tetrazolium Assay). The class given is cell-based. Particulars: Homo sapiens, RS4-11, 48 h, RS4;11 cells, exposed for 48 hours, cell viability; read-out: IC50 (nM) MTT RS4;11. How it is done: The cytotoxicity studies were carried out on the RS4;11 leukaemia tumour line.
The cells are distributed onto microplates and exposed to the test compounds for 48 hours.
The cell viability is then quantified by a colorimetric assay, the Microculture Tetrazolium Assay (Cancer Res., 1987, 47, 939-942).

Chain of Bcl-2 protein (P10415 whole entry): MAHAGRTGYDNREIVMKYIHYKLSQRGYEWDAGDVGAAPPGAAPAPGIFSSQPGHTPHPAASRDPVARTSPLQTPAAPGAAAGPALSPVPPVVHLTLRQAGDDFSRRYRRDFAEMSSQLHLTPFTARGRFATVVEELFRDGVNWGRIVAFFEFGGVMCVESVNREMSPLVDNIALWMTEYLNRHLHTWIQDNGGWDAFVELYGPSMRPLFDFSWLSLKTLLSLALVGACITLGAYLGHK

Consider `COc1ccc(C(=O)N2Cc3ccccc3C[C@H]2CN2CCOCC2)c(-c2cc(C(=O)N(c3ccc(O)cc3)c3cc(C#N)n(C)c3C)c(C)n2C)c1` [Example 408, N-(5-Cyano-1,2-dimethyl-1H-pyrrol-3-yl)-N-(4-hydroxyphenyl)-5-(5-methoxy-2-{[(3S)-3-(morpholin-4-ylmethyl)-3,4-dihydroisoquinolin-2(1H)-yl]carbonyl}phenyl)-1,2-dimethyl-1H-pyrrole-3-carboxamide hydrochloride], for which the half-inhibitory concentration (IC50) at Bcl-2 protein was found to be 5.4 nM; in assay [1] it was 4.46 nM.
On to `Cc1c(C(=O)N(c2ccc(O)cc2)c2cnc3c(ccn3C)c2)cc(-c2ccccc2C(=O)N2Cc3ccccc3C[C@H]2CN2CCOCC2)n1C` [Example 409, N-(4-Hydroxyphenyl)-1,2-dimethyl-N-(1-methyl-1H-pyrrolo[2,3-b]-pyridin-5-yl)-5-(2-{[(3S)-3-(morpholin-4-ylmethyl)-3,4-dihydroisoquinolin-2(1H)-yl]-carbonyl}phenyl)-1H-pyrrole-3-carboxamide hydrochloride], for which the concentration for half-maximal inhibition (IC50) is 12.2 nM on Bcl-2 protein and 41.9 nM in assay [1].
Take `Cc1c(C(=O)N(c2ccc(O)cc2)c2cnc3c(c2)CCN3C)cc(-c2ccccc2C(=O)N2Cc3ccccc3C[C@H]2CN2CCOCC2)n1C` [Example 410, N-(4-Hydroxyphenyl)-1,2-dimethyl-N-(1-methyl-2,3-dihydro-1H-pyrrolo[2,3-b]pyridin-5-yl)-5-(2-{[(3S)-3-(morpholin-4-ylmethyl)-3,4-dihydroisoquinolin-2(1H)-yl]carbonyl}phenyl)-1H-pyrrole-3-carboxamide hydrochloride]: the results for the IC50 (on Bcl-2 protein; in assay [1]) were 9.9 nM and 61.6 nM, respectively.
With `Cc1c(C(=O)N(c2ccc(O)cc2)c2cnn(C)c2)cc(-c2cc(Cl)ccc2C(=O)N2Cc3ccccc3C[C@H]2C)n1CCN1CCOCC1` [Example 411, 5-(5-Chloro-2-{[(3R)-3-methyl-3,4-dihydroisoquinolin-2(1H)-yl]carbonyl}phenyl)-N-(4-hydroxyphenyl)-2-methyl-N-(1-methyl-1H-pyrazol-4-yl)-1-[2-(morpholin-4-yl)ethyl]-1H-pyrrole-3-carboxamide hydrochloride], the concentration for half-maximal inhibition (IC50) at Bcl-2 protein is 5.5 nM; in assay [1], 32.8 nM.
The like results for `Cc1c(N(C(=O)c2cc(-c3cc(Cl)ccc3C(=O)N3Cc4ccccc4C[C@H]3CCCN3CCOCC3)n(C)c2C)c2ccc(O)cc2)cc(C#N)n1C` [Example 412, 5-(5-Chloro-2-{[(3R)-3-[3-(morpholin-4-yl)propyl]-3,4-dihydroisoquinolin-2(1H)-yl]carbonyl}phenyl)-N-(5-cyano-1,2-dimethyl-1H-pyrrol-3-yl)-N-(4-hydroxyphenyl)-1,2-dimethyl-1H-pyrrole-3-carboxamide hydrochloride] were, in that order, 3.1 nM and 0.398 nM.
With `Cc1c(N(C(=O)c2cc(-c3cc4c(cc3C(=O)N3Cc5ccccc5C[C@H]3CN3CCOCC3)OCCO4)n(C)c2C)c2ccc(O)cc2)cc(C#N)n1C` [Example 413, N-(5-Cyano-1,2-dimethyl-1H-pyrrol-3-yl)-N-(4-hydroxyphenyl)-1,2-dimethyl-5-(7-{[(3S)-3-(morpholin-4-ylmethyl)-3,4-dihydroisoquinolin-2(1H)-yl]-carbonyl}-2,3-dihydro-1,4-benzodioxin-6-yl)-1H-pyrrole-3-carboxamide hydrochloride], the IC50 worked out at 3.1 nM on Bcl-2 protein and 9.43 nM in assay [1].
As to `Cc1c(N(C(=O)c2cc(-c3cc(Cl)ccc3C(=O)N3Cc4ccccc4C[C@H]3CN3CCOCC3)n(C)c2)c2ccc(O)cc2)cc(C#N)n1C` [Example 415, 5-(5-Chloro-2-{[(3S)-3-(morpholin-4-ylmethyl)-3,4-dihydroisoquinolin-2(1H)-yl]carbonyl}phenyl)-N-(5-cyano-1,2-dimethyl-1H-pyrrol-3-yl)-N-(4-hydroxyphenyl)-1-methyl-1H-pyrrole-3-carboxamide hydrochloride], the figures for the half-maximal inhibitory concentration (IC50) (at Bcl-2 protein; in assay [1]) were 3.8 nM and 29.9 nM, respectively.
As for `Cl.[2H]C([2H])([2H])n1cc(N(C(=O)c2cc(-c3cc(Cl)ccc3C(=O)N3Cc4ccccc4C[C@H]3CN3CCOCC3)n(C)c2C)c2ccc(O)cc2)cn1` [Example 416, 5-(5-Chloro-2-{[(3S)-3-(morpholin-4-ylmethyl)-3,4-dihydroisoquinolin-2(1H)-yl]carbonyl}phenyl)-N-(4-hydroxyphenyl)-1,2-dimethyl-N-[1-(trideuteriomethyl)-1H-pyrazol-4-yl]-1H-pyrrole-3-carboxamide hydrochloride], the figures for the IC50 (on Bcl-2 protein; in assay [1]) were 2.9 nM and 42.5 nM, respectively.
For the compound `COc1ccc(-c2cc(C(=O)N(c3ccc(O)cc3)c3cc(C#N)n(C)c3C)c(C)n2C)c(C(=O)N2Cc3ccccc3C[C@H]2CN2CCOCC2)c1` [Example 417, N-(5-Cyano-1,2-dimethyl-1H-pyrrol-3-yl)-N-(4-hydroxyphenyl)-5-(4-methoxy-2-{[(3S)-3-(morpholin-4-ylmethyl)-3,4-dihydroisoquinolin-2(1H)-yl]carbonyl}phenyl)-1,2-dimethyl-1H-pyrrole-3-carboxamide hydrochloride], the figures for the 50% inhibitory concentration (IC50) (on Bcl-2 protein; in assay [1]) were 3 nM and 11 nM, respectively.
In the same order, the values of `COc1ccc(-c2cc(C(=O)N(c3ccc(O)cc3)c3cnn(C)c3)c(C)n2C)c(C(=O)N2Cc3ccccc3C[C@H]2CN2CCOCC2)c1` [Example 418, N-(4-Hydroxyphenyl)-5-(4-methoxy-2-{[(3S)-3-(morpholin-4-ylmethyl)-3,4-dihydroisoquinolin-2(1H)-yl]carbonyl}phenyl)-1,2-dimethyl-N-(1-methyl-1H-pyrazol-4-yl)-1H-pyrrole-3-carboxamide hydrochloride] are 10.1 nM and 159 nM.
With `Cc1c(C(=O)N(c2ccc(O)cc2)c2cccc(C#N)c2)cc(-c2cc(F)ccc2C(=O)N2Cc3ccccc3C[C@H]2CN2CCOCC2)n1C` [Example 419, N-(3-Cyanophenyl)-5-(5-fluoro-2-{[(3S)-3-(morpholin-4-ylmethyl)-3,4-dihydroisoquinolin-2(1H)-yl]carbonyl}phenyl)-N-(4-hydroxyphenyl)-1,2-dimethyl-1H-pyrrole-3-carboxamide hydrochloride], the results for the IC50 (on Bcl-2 protein; in assay [1]) were 2.8 nM and 15.8 nM, respectively.
Turning to `Cc1c(N(C(=O)c2cc(-c3cc(F)ccc3C(=O)N3Cc4ccccc4C[C@H]3CN3CCOCC3)n(C)c2C)c2ccc(O)cc2)cc(C#N)n1C` [Example 421, N-(5-Cyano-1,2-dimethyl-1H-pyrrol-3-yl)-5-(5-fluoro-2-{[(3S)-3-(morpholin-4-ylmethyl)-3,4-dihydroisoquinolin-2(1H)-yl]carbonyl}phenyl)-N-(4-hydroxyphenyl)-1,2-dimethyl-1H-pyrrole-3-carboxamide hydrochloride], the IC50 on Bcl-2 protein is 2.5 nM; in assay [1] it was 3.73 nM.
In the case of `Cc1c(C(=O)N(c2ccc(O)cc2)c2cnn(C)c2)cc(-c2ccccc2C(=O)N2Cc3ccccc3C[C@H]2CN2CCOCC2)n1C` [Example 422, N-(4-Hydroxyphenyl)-1,2-dimethyl-N-(1-methyl-1H-pyrazol-4-yl)-5-(2-{[(3S)-3-(morpholin-4-ylmethyl)-3,4-dihydroisoquinolin-2(1H)-yl]carbonyl}phenyl)-1H-pyrrole-3-carboxamide hydrochloride], the values for the half-inhibitory concentration (IC50) (at Bcl-2 protein; in assay [1]) were 9.2 nM and 101 nM, respectively.
In the same order, the values of `Cc1c(C(=O)N(c2ccc(O)cc2)c2cnn(C3COC3)c2)cc(-c2cc(F)ccc2C(=O)N2Cc3ccccc3C[C@H]2CN2CCOCC2)n1C` [Example 423, 5-(5-Fluoro-2-{[(3S)-3-(morpholin-4-ylmethyl)-3,4-dihydroisoquinolin-2(1H)-yl]carbonyl}phenyl)-N-(4-hydroxyphenyl)-1,2-dimethyl-N-[1-(oxetan-3-yl)-1H-pyrazol-4-yl]-1H-pyrrole-3-carboxamide] are 11.7 nM and 344 nM.
Take `COc1ncc(N(C(=O)c2cc(-c3ccccc3C(=O)N3Cc4ccccc4C[C@H]3CN3CCOCC3)n(C)c2C)c2ccc(O)cc2)cn1` [Example 424, N-(4-Hydroxyphenyl)-N-(2-methoxypyrimidin-5-yl)-1,2-dimethyl-5-(2-{[(3S)-3-(morpholin-4-ylmethyl)-3,4-dihydroisoquinolin-2(1H)-yl]carbonyl}phenyl)-1H-pyrrole-3-carboxamide hydrochloride]: the IC50 is 13.6 nM at Bcl-2 protein and 102 nM in assay [1].
Turning to `COc1cc(C#N)cc(N(C(=O)c2cc(-c3cc(F)ccc3C(=O)N3Cc4ccccc4C[C@H]3CN3CCOCC3)n(C)c2C)c2ccc(O)cc2)c1` [Example 425, N-(3-Cyano-5-methoxyphenyl)-5-(5-fluoro-2-{[(3S)-3-(morpholin-4-ylmethyl)-3,4-dihydroisoquinolin-2(1H)-yl]carbonyl}phenyl)-N-(4-hydroxyphenyl)-1,2-dimethyl-1H-pyrrole-3-carboxamide hydrochloride], the IC50 was 4.2 nM at Bcl-2 protein and 62 nM in assay [1].
With `COc1ncc(N(C(=O)c2cc(-c3cc(F)ccc3C(=O)N3Cc4ccccc4C[C@H]3CN3CCOCC3)n(C)c2C)c2ccc(O)cc2)cn1` [Example 426, 5-(5-Fluoro-2-{[(3S)-3-(morpholin-4-ylmethyl)-3,4-dihydroisoquinolin-2(1H)-yl]carbonyl}phenyl)-N-(4-hydroxyphenyl)-N-(2-methoxypyrimidin-5-yl)-1,2-dimethyl-1H-pyrrole-3-carboxamide], the results for the half-maximal inhibitory concentration (IC50) (on Bcl-2 protein; in assay [1]) were 5.2 nM and 139 nM, respectively.
